Data from EP1229025A1, “NOVEL QUINAZOLINE DERIVATIVES” (Japan Energy Corporation, priority 1999, dated 2001).

System: TNF-α production
Assay: TNF-α production inhibiting test using human PBMC (LPS stimulus, ELISA)
Type: cell-based
Details: LPS 10 ng/ml, 16 hours, ELISA of culture supernatants
Description: Example 145: TNF-α production inhibiting test using human PBMC (peripheral blood mononuclear cells)
Preparation of human PBMC
The blood of a healthy person was taken with a vacuum blood-collecting tube (Nipro neotube) and diluted up to two-fold with physiological saline (Otsuka Pharmaceuticals). To the diluted blood was added 6% dextran T-500 (prepared after dissolution in physiological saline (Otsuka Pharmaceuticals) and sterilization with an autoclave) so as to make a final concentration of 1%. The solution was subjected to tumble mixing and allowed to stand at room temperature for 30 minutes to precipitate the erythrocytes. The supernatant was collected and subjected to centrifugation at 20 °C and at 1,500 rpm for 10 minutes. The cells were suspended in 3 ml of RPMI1640 culture medium (Asahi Technogllas) and overlaid on the solution surface of 3 ml Lymphoprep (NYCOMED). Further, with 1.5 ml of RPMI1640 culture medium being added to the tube which had contained the cell suspension liquid, the cells attached to the tube, which had remained uncollected, were suspended for collection and overlaid on the Lymphoprep previously mentioned. This operation was repeated again. After centrifugation at 20 °C and at 2,000 rpm for 30 minutes, there was collected a fraction of peripheral blood mononuclear cells present in the boundary surface between the Lymphoprep and the RPMI1640 culture medium. The cells were washed twice with 10 ml RPMI1640 culture medium to remove the Lymphoprep and then suspended in a RPMI1640 culture medium added with 10% bovine fetal serum (IRVINE SCIENTIFIC), 100 U/ml penicillin and 100 µg/ml streptomycin (hereinafter referred to as cRPMI1640 culture medium). The number of the cells was measured by Tuerk dying, and the cells, after adjustment to 3 × 10^6 cells/ml, were planted in 100 µl/well on a 96-well plate (FALCON). The cells were cultured at 37 °C under 5%CO2 atmosphere for about 5 hours.
Induction of TNF-α production by LPS stimulus
LPS (E.coli 0111:B4, DIFCO), which had been prepared to 10 mg/ml with water and kept at -20, was diluted to 100 µg/ml with cRPMI1640 culture medium and subjected to sterile filtration. The 100 µg/ml LPS was diluted with cRPMI1640 culture medium to prepare 20 ng/ml LPS. A compound to be tested which was dissolved in DMSO at 1,000-fold concentration was diluted to 500-fold with cRPMI1640 culture medium containing 20 ng/ml LPS and added in 100 µl/well to the cells which had been planted on the previously mentioned 96-well plate (final concentration of LPS: 10 ng/ml). For use as the control group, the solutions were made by diluting DMSO of the same volume as in the test compounds with cRPMI1640 culture medium containing 20 ng/ml LPS, and they were added to the cells. These cells were cultured at 37 °C under 5%CO2 atmosphere for 16 hours.
Determination of TNF-α activity (ELISA method)
To the 96-well plate the mouse anti-human TNF-α antibody (prepared to 2 µg/ml with Coating buffer*^1) was added so as to make 100 µl/well and allowed to stand at 4 °C overnight. After 5-times washing with Wash buffer*^2 (300µl/well), the Blocking buffer*^3 was added to the solutions, which were allowed to stand 37 °C for 2 hours. The culture supernatants were diluted up to 5-fold in the plate (supernatant 20 µl being added to 80 µl of cRPMI1640 culture medium). Simultaneously, for using for a calibration curve, a series of dilution of recombinant human TNF-α was prepared arid allowed to stand 37 °C for 1 hour. After 5-times washing with Wash buffer (300 µl /well), biotinylated rabbit anti-human TNF-α antibody (prepared to 0.25 µg/ml with Antibody diluent*^4) was added so as to make 100 µl /well and allowed to stand at 37 °C for 1 hour. After 5-times washing with Wash buffer (300 µl /well), Streptavidin-Horseradish peroxidase(prepared to 1:4000 with Antibody diluent) was added to make 100 µl /well and allowed to stand at 37 °C for 15 minutes. […]

Row | SMILES | IC50
1 | O=[N+]([O-])c1cc2c(NCCc3ccc(Cl)cc3)ncnc2cc1N1CCNCC1 [Example 1, 4-[2-(4-chlorophenyl)ethylamino]-6-nitro-7-(piperazin-1-yl)quinazoline] | 800 nM
2 | O=[N+]([O-])c1cc2c(NCCc3ccc(Cl)cc3)ncnc2cc1N1CCN(CCO)CC1 [Example 5, 4-[2-(4-chlorophenyl)ethylamino]-7-[4-(2-hydroxyethyl)piperazin-1-yl)-6-nitroquinazoline] | 1900 nM
3 | O=CN1CCN(c2cc3ncnc(NCCc4ccc(Cl)cc4)c3cc2[N+](=O)[O-])CC1 [Example 6, 4-[2-(4-chlorophenyl)ethylamino]-7-(4-formylpiperazin-1-yl)-6-nitroquinazoline] | 2500 nM
4 | O=[N+]([O-])c1cc2c(NCc3ccccc3)ncnc2cc1N1CCNCC1 [Example 18, 4-(benzylamino)-6-nitro-7-(piperazin-1-yl)quinazoline] | 400 nM
5 | O=[N+]([O-])c1cc2c(NCCc3ccc(F)cc3)ncnc2cc1N1CCNCC1 [Example 37, 4-[2-(4-fluorophenyl)ethylamino]-6-nitro-7-(piperazin-1-yl)quinazoline] | 600 nM
6 | O=[N+]([O-])c1cc2c(NCCc3cccs3)ncnc2cc1N1CCNCC1 [Example 42, 6-nitro-7-(piperazin-1-yl)-4-[2-(2-thienyl)ethylamino]quinazoline] | 500 nM
7 | O=[N+]([O-])c1cc2c(NCCc3ccccn3)ncnc2cc1N1CCNCC1 [Example 56, 6-nitro-7-(piperazin-1-yl)-4-[2-(2-pyridyl)ethylamino]quinazoline] | 1100 nM
8 | O=[N+]([O-])c1cc2c(NCCc3ccncc3)ncnc2cc1N1CCNCC1 [Example 58, 6-nitro-7-(piperazin-1-yl)-4-[2-(4-pyridyl)ethylamino]quinazoline] | 3500 nM
9 | O=[N+]([O-])c1cc2c(NCc3ccc(Cl)cc3)ncnc2cc1N1CCNCC1 [Example 60, 4-(4-chlorobenzylamino)-6-nitro-7-(piperazin-1-yl)quinazoline] | 600 nM
10 | O=[N+]([O-])c1cc2c(NCc3ccc(C(F)(F)F)cc3)ncnc2cc1N1CCNCC1 [Example 63, 6-nitro-7-(piperazin-1-yl)-4-[4-(1,1,1-trifluoiomethyl)benzylamino]quinazoline] | 1600 nM
11 | Cc1ccc(CNc2ncnc3cc(N4CCNCC4)c([N+](=O)[O-])cc23)cc1 [Example 64, 4-(4-methylbenzylamino)-6-nitro-7-(piperazin-1-yl)quinazoline] | 400 nM
12 | COc1ccccc1CNc1ncnc2cc(N3CCNCC3)c([N+](=O)[O-])cc12 [Example 65, 4-(2-methoxylbenzylamino)-6-nitro-7-(piperazin-1-yl)quinazoline] | 1200 nM
13 | COc1ccc(CNc2ncnc3cc(N4CCNCC4)c([N+](=O)[O-])cc23)cc1OC [Example 68, 4-(3,4-dimethoxylbenzylamino)-6-nitro-7-(piperazin-1-yl)quinazoline] | 2400 nM
14 | COc1cc(CNc2ncnc3cc(N4CCNCC4)c([N+](=O)[O-])cc23)cc(OC)c1OC [Example 69, 6-nitro-7-(piperazin-1-yl)-4-(3,4,5-trimethoxylbenzylamino)quinazoline] | 1800 nM
15 | O=[N+]([O-])c1cc2c(NCCc3ccc(Br)cc3)ncnc2cc1N1CCNCC1 [Example 72, 4-[2-(4-bromophenyl)ethylamino]-6-nitro-7-(piperazin-1-yl)quinazoline] | 400 nM
16 | Cc1ccc(CCNc2ncnc3cc(N4CCNCC4)c([N+](=O)[O-])cc23)cc1 [Example 75, 4-[2-(4-methylphenyl)ethylamino]-6-nitro-7-(piperazin-1-yl)quinazoline] | 1900 nM
17 | COc1ccc(CCNc2ncnc3cc(N4CCNCC4)c([N+](=O)[O-])cc23)cc1 [Example 78, 4-[2-(4-methoxyphenyl)ethylamino]-6-nitro-7-(piperazin-1-yl)quinazoline] | 1100 nM
18 | COc1ccc(CCNc2ncnc3cc(N4CCNCC4)c([N+](=O)[O-])cc23)cc1OC [Example 79, 4-[2-(3,4-dimethoxyphenyl)ethylamino]-6-nitro-7-(piperazin-1-yl)quinazoline] | 2300 nM

Further molecules by falling IC50, results first:

Row | IC50 | SMILES
19 | 2500 nM | O=[N+]([O-])c1cc2c(NCCc3ccc(O)cc3)ncnc2cc1N1CCNCC1 [Example 80, 4-[2-(4-hydroxyphenyl)ethylamino]-6-nitro-7-(piperazin-1-yl)quinazoline]
20 | 2500 nM | Nc1ccc(CCNc2ncnc3cc(N4CCNCC4)c([N+](=O)[O-])cc23)cc1 [Example 81, 4-[2-(4-anilino)ethylamino]-6-nitro-7-(piperazin-1-yl)quinazoline]
21 | 2300 nM | O=[N+]([O-])c1cc2c(NCCc3cccnc3)ncnc2cc1N1CCNCC1 [Example 57, 6-nitro-7-(piperazin-1-yl)-4-[2-(3-pyridyl)ethylamino]quinazoline]
22 | 2100 nM | O=[N+]([O-])c1cc2c(NCCc3ccc(Cl)cc3)ncnc2cc1N1CCCNCC1 [Example 2, 4-[2-(4-chlorophenyl)ethylamino]-7-(homopiperazin-1-yl)-6-nitroquinazoline]
23 | 1400 nM | CN1CCN(c2cc3ncnc(NCCc4ccc(Cl)cc4)c3cc2[N+](=O)[O-])CC1 [Example 3, 4-[2-(4-chlorophenyl)ethylamino]-7-(4-methylpiperazin-1-yl)-6-nitroquinazoline]
24 | 1400 nM | NC1CCN(c2cc3ncnc(NCCc4ccc(Cl)cc4)c3cc2[N+](=O)[O-])CC1 [Example 8, 7-(4-aminopiperidin-1-yl)-4-[2-(4-chlorophenyl)ethylamino]-6-nitroquinazoline]
25 | 1300 nM | NCC1CCN(c2cc3ncnc(NCCc4ccc(Cl)cc4)c3cc2[N+](=O)[O-])CC1 [Example 9, 7-(4-aminomethylpiperidin-1-yl)-4-[2-(4-chlorophenyl)ethylamino]-6-nitroquinazoline]
26 | 700 nM | COc1cccc(CNc2ncnc3cc(N4CCNCC4)c([N+](=O)[O-])cc23)c1 [Example 66, 4-(3-methoxylbenzylamino)-6-nitro-7-(piperazin-1-yl)quinazoline]
27 | 600 nM | O=[N+]([O-])c1cc2c(NCCc3ccccc3Cl)ncnc2cc1N1CCNCC1 [Example 70, 4-[2-(2-chlorophenyl)ethylamino]-6-nitro-7-(piperazin-1-yl)quinazoline]
28 | 600 nM | O=[N+]([O-])c1cc2c(NCCc3cccc(Cl)c3)ncnc2cc1N1CCNCC1 [Example 71, 4-[2-(3-chlorophenyl)ethylamino]-6-nitro-7-(piperazin-1-yl)quinazoline]
29 | 500 nM | O=[N+]([O-])c1cc2c(NCc3cccc4ccccc34)ncnc2cc1N1CCNCC1 [Example 59, 4-[(1-naphthyl)methylamino]-6-nitro-7-(piperazin-1-yl)quinazoline]
30 | 400 nM | O=[N+]([O-])c1cc2c(NCCc3ccccc3)ncnc2cc1N1CCNCC1 [Example 10, 6-nitro-4-[2-(phenyl)ethylamino]-7-(piperazin-1-yl)quinazoline]
31 | 400 nM | O=[N+]([O-])c1cc2c(NCc3ccc(F)cc3)ncnc2cc1N1CCNCC1 [Example 25, 4-(4-fluorobenzylamino)-6-nitro-7-(piperazin-1-yl)quinazoline]
32 | 400 nM | O=[N+]([O-])c1cc2c(NCCCc3ccccc3)ncnc2cc1N1CCNCC1 [Example 54, 6-nitro-4-[3-(phenyl)propylamino]-7-(piperazin-1-yl)quinazoline]
33 | 300 nM | COc1ccc(CNc2ncnc3cc(N4CCNCC4)c([N+](=O)[O-])cc23)cc1 [Example 67, 4-(4-methoxylbenzylamino)-6-nitro-7-(piperazin-1-yl)quinazoline]
